Data: PubChem BioAssay AID1902 (Broad Institute, 2009)
Calls of active or inactive are those of the source.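 The calls were made as follows: active = EC50 no more than a set limit of log units above the highest dose; inactive = the rest.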

The molecules below were run against S. pyogenes SKKanGAS, kanamycin survival, BacTiterGlo, 6 h (assay: SKKanGAS survival reduction under kanamycin, dose response, streptokinase promoter inhibitor project, SKKanGAS strain, luminescence, dose confirmation (AID 1902);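 also: lower survival reflects blocked streptokinase promoter driving kanamycin resistance gene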).

| SMILES | EC50 |
| --- | --- |
| CCc1ccc2[nH]c(O)c(N=Nc3nc(-c4ccccc4)cs3)c2c1 | 8.8 µM |
| Cn1ncc(Cl)c1C(=O)N1CCC2(CC1)OCCO2 | > 15 µM (inactive) |
| O=c1cc(-c2ccccc2)[nH]n1-c1nc2ccccc2s1 | 2.72 µM |
| CC(=O)N(C)c1ccc(OCC(O)Cn2c3ccc(Cl)cc3c3cc(Cl)ccc32)cc1 (centres undefined) | 3.35 µM |
| CCCCn1c(=O)c(C(=O)NCc2ccccc2)c(O)c2ccccc21 | 6.85 µM |
| Clc1ccccc1C(c1ccccc1)(c1ccccc1)n1ccnc1 | 6.21 µM |
| C[C@]12CC[C@@H]3c4ccc(OC(=O)c5ccccc5)cc4CC[C@H]3[C@@H]1CC[C@@H]2O | 1.92 µM |
| O=C(N/N=C/c1cc(Br)ccc1O)C(=O)Nc1ccccc1OC(F)(F)C(F)F | 1.44 µM |
| O=C(/C=C/c1cccc(C(F)(F)F)c1)Nc1cccc(C(F)(F)F)c1 | 3.3 µM |
| O=C(NNC(=S)NC(=O)c1ccccc1)c1ccc(O)cc1 | 2.26 µM |
| COc1ccc(Oc2nc(-c3ccccn3)ncc2OC)cc1 | 1.45 µM |
| CC(C)(C)C(=O)N1N=C(c2ccc(NS(C)(=O)=O)cc2)CC1c1cccs1 (centres undefined) | 7.49 µM |
| Cc1[nH]c2ccccc2c1/C=N/Nc1nc2ccccc2[nH]1 | 4.87 µM |
| COc1ccc(CC(=O)N/N=C/c2cc([N+](=O)[O-])cc(Br)c2O)cc1 | 4.91 µM |
| Clc1ccccc1CN(Cc1ccccc1)c1ncnc2nc[nH]c12 | 3.85 µM |
| COc1cccc(-c2nn(-c3ccccc3)cc2C(=O)Nc2nccs2)c1 | 2.98 µM |
| Cc1ccc(NC(=O)C(OC(=O)c2ccc(NC(N)=O)cc2)c2ccccc2)cc1Cl (centres undefined) | 6.52 µM |
| Oc1cccc2ccc(/C=C/c3ccc(Br)s3)nc12 | 1.38 µM |
| CN1C(=O)NC(c2ccccc2)(C(F)(F)F)S/C1=C(/C#N)c1nnc(N2CCOCC2)n1-c1ccccc1 (centres undefined) | > 15 µM (inactive) |
| CCOc1cc(-c2cc(-c3ccc(NC(C)=O)cc3)nc(N)c2C#N)ccc1O | 0.919 µM |
| O=C(Nc1ccc(Cl)c(Cl)c1)C1CC(=O)N(c2ccc(Br)cc2)C1 (centres undefined) | 4.5 µM |
| COc1ccc(C(=O)CSc2[nH]c(=O)cc(C(F)(F)F)c2C#N)cc1 | 7.06 µM |

| SMILES | EC50 |
| --- | --- |
| Cc1ccc(NC(=S)NNC(=S)Nc2cccc(C(F)(F)F)c2)cc1 | 2.04 µM |
| Cc1ccc(OCC(=O)Nc2nc(-c3ccccn3)cs2)c(C)c1 | 1.99 µM |
| CS(=O)(=O)c1ccc([C@@H](O)[C@@H](CO)NC(=O)C(Cl)Cl)cc1 | 0.74 µM |
| Cn1c(N)c(C(=O)COC(=O)CCc2c[nH]c3ccccc23)c(=O)n(C)c1=O | 9.68 µM |
| COc1ccc(NC(=S)NC(NC(=O)c2ccc(Cl)cc2Cl)C(Cl)(Cl)Cl)c([N+](=O)[O-])c1 (centres undefined) | 1.15 µM |
| COC(=O)c1cccc(NC(=S)NCc2ccc(Cl)cc2)c1 | 9.26 µM |
| CCOc1ccc(-c2csc(/C(C#N)=C\c3ccc(O)c([N+](=O)[O-])c3)n2)cc1 | 1.99 µM |
| CCOC(=O)N1CCC(N2Cc3cccc(C(=O)Nc4ccc(F)cc4)c3C2=O)CC1 | 5.9 µM |
| CCOC(=O)C(C(=O)OCC)c1cc(Br)c2noc3c2c1C(=O)c1ccccc1-3 | 3.7 µM |
| C=CCn1c(N)c(C(=O)Nc2cccc(C)c2)c2nc3ccccc3nc21 | 3.4 µM |
| O=C(Nc1ncc(Cc2cccc(Cl)c2)s1)c1cccs1 | 3.91 µM |
| Cc1ccccc1Nc1nc(N)nc(CN(C)Cc2ccccc2Cl)n1 | 1.76 µM |
| Cc1cccc(C)c1OCC(=O)Nc1ccccc1N1CCCCC1 | 2.78 µM |
| Nc1sc(-c2ccccc2)cc1C(=O)N/N=C/c1ccc(Cl)cc1 | 5.73 µM |
| Cc1cnn(-c2nc(-c3ccccc3)cc(-c3ccccc3)n2)c1 | 4.51 µM |
| CSc1n[nH]c2nc3c(c(=O)n12)C1(CCCCC1)Cc1ccccc1-3 | 10.5 µM |
| Cc1cc(=O)c(C(=O)O)cn1Nc1ccc(Cl)cc1 | 2.36 µM |
| Nc1ccc(-c2cn3cccnc3n2)cc1 | > 15 µM (inactive) |
| CC1CCN(c2ccccc2NC(=O)c2cc3ccccc3o2)CC1 | 11.7 µM |
| COc1ccc(CCN2CC(C(=O)NCCc3ccccn3)CCC2=O)cc1 (centres undefined) | > 15 µM (inactive) |
| Cn1c(Sc2ccccc2Cl)c(C=O)c2ccccc21 | 5.92 µM |
| COc1ccc(C2CC(=O)c3cnc(N4CCN(Cc5ccccc5)CC4)nc3C2)cc1 (centres undefined) | 13.7 µM |
